# Assay results from patent US6479435B1, “Diaryl ethers and processes for their preparation and herbicidal and desiccant compositions containing them” (ISK Americas Incorporated, priority 1997, dated 2002).
# Tests used:
# Type in all cases: in vivo
# [1] = system: ivyleaf morningglory (Ipomoea hederacea, IPOHE); test: Pre-emerge greenhouse herbicide test, phytotoxicity rating; conditions: Ipomoea, pre-emergence, 336 h, 14 days after application, rating scale 0-100; for pest or weed control at 125 g/ha: Rate 125 g al/ha; for pest or weed control at 500 g/ha: Rate 500 g al/ha
# Method in brief: (§1)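 Visual 0–100 injury rating (100 = all plants dead) taken 14 days after treatment. Rates of 125–1000 g ai/ha in acetone, 187 l/ha, were sprayed onto soil one day post-sowing; pots were surface-watered to incorporate, then bottom-watered.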
# [2] = system: Johnsongrass (Sorghum halepense, SORHA); test: as above; conditions: Sorghum halepense, pre-emergence, 336 h, 14 days after application, rating scale 0-100; for pest or weed control at 125 g/ha: Rate 125 g al/ha; for pest or weed control at 500 g/ha: Rate 500 g al/ha
# Method in brief: as §1
# [3] = system: redroot pigweed (Amaranthus retroflexus, AMARE); test: as above; conditions: Amaranthus retroflexus, pre-emergence, 336 h, 14 days after application, rating scale 0-100; for pest or weed control at 125 g/ha: Rate 125 g al/ha; for pest or weed control at 500 g/ha: Rate 500 g al/ha
# Method in brief: as §1
# [4] = system: green foxtail (Setaria viridis, SETVI); test: as above; conditions: Setaria viridis, pre-emergence, 336 h, 14 days after application, rating scale 0-100; for pest or weed control at 125 g/ha: Rate 125 g al/ha; for pest or weed control at 500 g/ha: Rate 500 g al/ha
# Method in brief: as §1
# [5] = system: sicklepod (Cassia obtusifolia, CASOB); test: as above; conditions: Senna obtusifolia, pre-emergence, 336 h, 14 days after application, rating scale 0-100; for pest or weed control at 125 g/ha: Rate 125 g al/ha; for pest or weed control at 500 g/ha: Rate 500 g al/ha
# Method in brief: as §1
# [6] = system: barnyardgrass (Echinochloa crusgalli, ECHCG); test: as above; conditions: Echinochloa crus-galli, pre-emergence, 336 h, 14 days after application, rating scale 0-100; for pest or weed control at 125 g/ha: Rate 125 g al/ha; for pest or weed control at 500 g/ha: Rate 500 g al/ha
# Method in brief: as §1
# [7] = system: large crabgrass (Digitaria sanguinalis, DIGSA); test: Post-emerge greenhouse herbicide test, phytotoxicity rating; conditions: Digitaria sanguinalis, post-emergence, 336 h, 14 days after application, scale 0-100; for pest or weed control at 63 g/ha: rate 63 g ai/ha; for pest or weed control at 500 g/ha: rate 500 g ai/ha
# Method in brief: (§2)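 Scores use a 0 (no damage) to 100 (complete kill) scale, taken 14 days after a foliar spray. Acetone solutions with 0.25% v/v non-ionic surfactant were applied by track sprayer at 187 l/ha and 63-1000 g ai/ha to bottom-watered 2-3 leaf plants.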
# [8] = system: velvetleaf (Abutilon theophrasti, ABUTH); test: as above; conditions: Abutilon theophrasti, post-emergence, 336 h, 14 days after application, scale 0-100; for pest or weed control at 63 g/ha: rate 63 g ai/ha; for pest or weed control at 500 g/ha: rate 500 g ai/ha
# Method in brief: as §2
# [9] = system: ivyleaf morningglory (Ipomoea hederacea, IPOHE); test: as above; conditions: Ipomoea, post-emergence, 336 h, 14 days after application, scale 0-100; for pest or weed control at 63 g/ha: rate 63 g ai/ha; for pest or weed control at 500 g/ha: rate 500 g ai/ha
# Method in brief: as §2
# [10] = system: lambsquarters (Chenopodium album, CHEAL); test: as above; conditions: Chenopodium album, post-emergence, 336 h, 14 days after application, scale 0-100; for pest or weed control at 63 g/ha: rate 63 g ai/ha; for pest or weed control at 500 g/ha: rate 500 g ai/ha
# Method in brief: as §2
# [11] = system: Johnsongrass (Sorghum halepense, SORHA); test: as above; conditions: Sorghum halepense, post-emergence, 336 h, 14 days after application, scale 0-100; for pest or weed control at 63 g/ha: rate 63 g ai/ha; for pest or weed control at 500 g/ha: rate 500 g ai/ha
# Method in brief: as §2
# [12] = system: redroot pigweed (Amaranthus retroflexus, AMARE); test: as above; conditions: Amaranthus retroflexus, post-emergence, 336 h, 14 days after application, scale 0-100; for pest or weed control at 63 g/ha: rate 63 g ai/ha; for pest or weed control at 500 g/ha: rate 500 g ai/ha
# Method in brief: as §2
# [13] = system: green foxtail (Setaria viridis, SETVI); test: as above; conditions: Setaria viridis, post-emergence, 336 h, 14 days after application, scale 0-100; for pest or weed control at 63 g/ha: rate 63 g ai/ha; for pest or weed control at 500 g/ha: rate 500 g ai/ha
# Method in brief: as §2
# [14] = system: sicklepod (Cassia obtusifolia, CASOB); test: as above; conditions: Senna obtusifolia, post-emergence, 336 h, 14 days after application, scale 0-100; for pest or weed control at 63 g/ha: rate 63 g ai/ha; for pest or weed control at 500 g/ha: rate 500 g ai/ha
# Method in brief: as §2
# [15] = system: barnyardgrass (Echinochloa crusgalli, ECHCG); test: as above; conditions: Echinochloa crus-galli, post-emergence, 336 h, 14 days after application, scale 0-100; for pest or weed control at 63 g/ha: rate 63 g ai/ha; for pest or weed control at 500 g/ha: rate 500 g ai/ha
# Method in brief: as §2
SMILES,pest or weed control at 125 g/ha [1] [%],pest or weed control at 500 g/ha [1] [%],pest or weed control at 125 g/ha [2] [%],pest or weed control at 500 g/ha [2] [%],pest or weed control at 125 g/ha [3] [%],pest or weed control at 500 g/ha [3] [%],pest or weed control at 125 g/ha [4] [%],pest or weed control at 500 g/ha [4] [%],pest or weed control at 125 g/ha [5] [%],pest or weed control at 500 g/ha [5] [%],pest or weed control at 125 g/ha [6] [%],pest or weed control at 500 g/ha [6] [%],pest or weed control at 63 g/ha [7] [%],pest or weed control at 500 g/ha [7] [%],pest or weed control at 63 g/ha [8] [%],pest or weed control at 500 g/ha [8] [%],pest or weed control at 63 g/ha [9] [%],pest or weed control at 500 g/ha [9] [%],pest or weed control at 63 g/ha [10] [%],pest or weed control at 500 g/ha [10] [%],other results
"Nn1c(C(F)(F)F)cc(=O)n(-c2cc(Oc3nc(F)c(F)cc3F)c(Cl)cc2F)c1=O [Compound 9-6, 1-Amino-3-[4-chloro-2-fluoro-5-(3,5,6-trifluoro-2-pyridyloxy)phenyl]-6-trifluoromethyl-1,2,3,4-tetrahydropyrimidine-2,4-dione]",90,95,90,90,100,100,100,100,90,100,90,100,90,100,100,100,100,100,100,100,pest or weed control at 63 g/ha [11]: 100%; pest or weed control at 500 g/ha [11]: 100%; pest or weed control at 63 g/ha [12]: 100%; pest or weed control at 500 g/ha [12]: 100%; pest or weed control at 63 g/ha [13]: 20%; pest or weed control at 500 g/ha [13]: 100%; pest or weed control at 63 g/ha [14]: 40%; pest or weed control at 500 g/ha [14]: 100%; pest or weed control at 63 g/ha [15]: 90%; pest or weed control at 500 g/ha [15]: 100%
"N#Cc1ccc(Oc2cc(-n3c(=O)cc(C(F)(F)F)n(N)c3=O)c(F)cc2Cl)nc1 [Compound 9-10, 1-Amino-3-[4-chloro-2-fluoro-5-(5-cyano-2-pyridyloxy)phenyl]-6-trifluoromethyl-1,2,3,4-tetrahydropyrimidine-2,4-dione]",100,100,95,100,100,100,100,100,100,100,90,100,10,20,100,100,100,100,100,100,pest or weed control at 63 g/ha [11]: 60%; pest or weed control at 500 g/ha [11]: 95%; pest or weed control at 63 g/ha [12]: 100%; pest or weed control at 500 g/ha [12]: 80%; pest or weed control at 63 g/ha [13]: 20%; pest or weed control at 500 g/ha [13]: 70%; pest or weed control at 63 g/ha [14]: 40%; pest or weed control at 500 g/ha [14]: 50%; pest or weed control at 63 g/ha [15]: 20%; pest or weed control at 500 g/ha [15]: 95%
"Nn1c(C(F)(F)F)cc(=O)n(-c2cc(Oc3ccc(Cl)cn3)c(Cl)cc2F)c1=O [Compound 9-3, 1-Amino-3-[4-chloro-2-fluoro-5-(5-chloro-2-pyridyloxy)phenyl]-6-trifluoromethyl-1,2,3,4-tetrahydropyrimidine-2,4-dione]",40,100,70,99,100,100,100,100,0,70,30,99,30,95,100,100,100,100,95,100,pest or weed control at 63 g/ha [11]: 10%; pest or weed control at 500 g/ha [11]: 90%; pest or weed control at 63 g/ha [12]: 100%; pest or weed control at 500 g/ha [12]: 100%; pest or weed control at 63 g/ha [13]: 20%; pest or weed control at 500 g/ha [13]: 95%; pest or weed control at 63 g/ha [14]: 20%; pest or weed control at 500 g/ha [14]: 95%; pest or weed control at 63 g/ha [15]: 0%; pest or weed control at 500 g/ha [15]: 90%
"Nn1c(C(F)(F)F)cc(=O)n(-c2cc(Oc3ncccn3)c(Cl)cc2F)c1=O [Compound 9-16, 1-Amino-3-[4-chloro-2-fluoro-5-(2-pyrimidyloxy)phenyl]-6-trifluoromethyl-1,2,3,4-tetrahydropyrimidine-2,4-dione]",100,100,100,100,100,100,100,100,100,100,100,100,100,100,100,100,100,100,100,100,pest or weed control at 63 g/ha [11]: 100%; pest or weed control at 500 g/ha [11]: 100%; pest or weed control at 63 g/ha [12]: 100%; pest or weed control at 500 g/ha [12]: 100%; pest or weed control at 63 g/ha [13]: 100%; pest or weed control at 500 g/ha [13]: 100%; pest or weed control at 63 g/ha [14]: 100%; pest or weed control at 500 g/ha [14]: 100%; pest or weed control at 63 g/ha [15]: 100%; pest or weed control at 500 g/ha [15]: 100%
